Assay results published in the supplement of paper PMC3974653.
Counter-ions that a name gives are not always drawn.

Test system: MTT (mouse pheochromocytoma)
Assay: IC50 of cell viability (ATP content)
Settings: (24 or 48 h)
In short: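 Each well of a white 1536-well plate received 5 µl of MTT mouse pheochromocytoma cells at 200,000 cells/ml in DMEM containing 5% FBS and 1% horse serum. After overnight culture at 37°C, 5% CO2, cells were exposed for 24 or 48 hrs to 23 nl of library compound in DMSO, pinned at 8 final concentrations from 0.5 nM to 46 µM. CellTiter-Glo luminescence was read after 15 minutes, and IC50 was obtained from a four-parameter logistic fit of signals normalised to positive-control and DMSO wells.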

Compound | IC50 of cell viability [µM]
CC(=O)O[C@H]1CC[C@H]2[C@@H]3CCC4=CC(=O)CCC4=C3C=C[C@]12C [TRENBOLONE ACETATE] | > 46
Cc1ccc(S(=O)(=O)[N-]Cl)cc1.O.O.O.[Na+] [Chloramine T trihydrate] | > 46
CC1NCCOC1c1ccccc1 (stereo not given) [Phenmetrazine Hydrochloride] | > 46
C[C@H](N)C(=O)c1ccccc1 [S(-)-Cathinone hydrochloride] | > 46
Cc1nnc2n1-c1sc(CCc3ccc(CC(C)C)cc3)cc1C(c1ccccc1Cl)=NC2C (stereo not given) [ISRAPAFANT] | > 46
C=C1C[C@@H]2[C@H]3CCC4=CC(=O)C=C[C@]4(C)[C@@]3(F)[C@@H](O)C[C@]2(C)[C@]1(O)C(=O)COC(C)=O [Fluprednidene acetate] | > 46
CC[C@]1(C)CC(=O)NC1=O [Ethosuximide] | > 46
Nc1ccc([N+](=O)[O-])cc1 [4-Nitroaniline] | > 46
Nc1cc(-c2ccncc2)c[nH]c1=O [Amrinone] | > 46
CN1C[C@@H]2c3ccccc3Oc3ccc(Cl)cc3[C@H]2C1 [Asenapine] | > 46
CNC(C)[C@@H](O)c1ccccc1.Cl (stereo partly drawn) [EPHEDRINE (1R,2S) HYDROCHLORIDE] | > 46
COc1cc(N[S+](C)(=O)[O-])ccc1Nc1c2ccccc2nc2ccccc12.Cl [Amsacrine hydrochloride] | > 46
CCCC(CCC)C(=O)OC1C[C@H]2CC[C@@H](C1)[N+]2(C)C (stereo not given in full) [ANISOTROPINE METHYLBROMIDE] | > 46
N#CC1(N2CCCCC2)CCCCC1 [1-PIPERIDINOCYCLOHEXANECARBONITRILE] | > 46
CCN(CC)N(O)N=O.CCNCC [2-(N,N-DIETHYLAMINO)DIAZENOLATE-2-OXIDE DIETHYLAMONIUM SALT] | > 46
Nc1ncnc2c1ncn2[C@@H]1O[C@H](COP(=O)(O)OP(=O)(O)OP(=O)(O)O)[C@@H](O)[C@H]1O [ADENOSINE TRIPHOSPHATE] | > 46
C=C(CC)C(=O)c1ccc(OCC(=O)O)c(Cl)c1Cl [Ethacrynic acid] | > 46
CC(C)=CCOC1=C2OC(=O)\C=C/C2=CC3=C1OC=C3 [IMPERATORIN] | > 46
CC(C)NC(C)Cc1ccc(I)cc1.Cl (stereo not given) [Iofetamine hydrochloride] | > 46

Compound | IC50 of cell viability [µM]
CC(C)(c1ccc(O)cc1)c1ccc(O)cc1 [Bisphenol A] | > 46
CC(=O)O[C@@]12CO[C@@H]1C[C@H](O)[C@@]1(C)C(=O)[C@H](O)C3=C(C)[C@@H](OC(=O)C(O)[C@@H](NC(=O)OC(C)(C)C)c4ccccc4)C[C@@](O)([C@@H](OC(=O)c4ccccc4)[C@H]21)C3(C)C (stereo not given in full) [DOCETAXEL] | > 46
Brc1ccccc1-c1ccccc1 [2-Bromobiphenyl] | > 46
C[C@@H](O[C@@H]1OCCN(Cc2nc(=O)[nH][nH]2)[C@@H]1c1ccc(F)cc1)c1cc(C(F)(F)F)cc(C(F)(F)F)c1 [Aprepitant] | > 46
CCCCC[C@H](O)/C=C/[C@H]1[C@H](O)CC(=O)[C@@H]1C/C=C\CCCC(=O)O [DINOPROSTONE] | > 46
Cc1c(O)cc2c(c1C)O[C@](C)(CCC[C@H](C)CCC[C@H](C)CCCC(C)C)CC2 | > 46
COP(=S)(OC)Oc1cc(Cl)c(Cl)cc1Cl [Fenchlorphos] | > 46
CC(=O)OC\C1=C(\[N@]2[C@@H](SC1)[C@H](N)C2=O)C(O)=O [Cephalosporanic acid, 7-amino] | > 46
CC[C@@H](CO)NC(=O)[C@H]\1CN(C)[C@@H]2CC3=C[N](C)C4=CC=CC(=C34)/C2=C1 [METHYSERGIDE] | > 46
CCC1(CC)C(=O)NC(=O)N(C)C1=O [METHARBITAL] | > 46
O=[S+]1([O-])c2cccc3cccc(c23)N1CCCN1CCN(c2ccc(F)cc2)CC1 [FANANSERINUM] | > 46
O=C[C@H](O)[C@@H](O)[C@H](O)[C@H](O)CO [D-Glucose] | > 46
Cc1c(C(N)=O)cc([N+](=O)[O-])cc1[N+](=O)[O-] [DINITOLMIDE] | > 46
C[C@H]1[C@@H]2CC[C@]/3(C)\C=C/C(=O)/C(=C3[C@H]2OC1=O)C [alpha-Santonin] | > 46
CN1C[C@@H](NS(=O)(=O)N(C)C)C[C@@H]2c3cccc4c3c(cn4C)C[C@H]21 [MESULERGINE] | > 46
CC(=O)CCCCn1c(=O)c2c(ncn2C)n(C)c1=O [Pentoxifylline] | > 46
CCc1cc(OC)c(CC(C)N)cc1OC (single isomer, unassigned; (-)) [(-)-2,5-Dimethoxy-4-ethylamphetamine] | > 46
COc1ccc(C(=O)Nc2ccccc2CCC2CCCCN2C)cc1 (stereo not given) [Encainide hydrochloride] | > 46
CCc1ccc(S(=O)(=O)O)cc1 | > 46

Continued, values first:

IC50 of cell viability [µM] | Compound
> 46 | N[C@@H](Cc1ccc(O)cc1)C(=O)O [TYROSINE]
> 46 | COc1cc2nc(N3CCN(C(=O)[C@H]4CCCO4)CC3)nc(N)c2cc1OC [Terazosin hydrochloride]
> 46 | OCc1c[nH]c2ccccc12 [Indole-3-carbinol]
> 46 | CC(C)(C)C(=O)OCOC(=O)[C@@H]1[N@]2[C@@H](SC1(C)C)[C@H](\N=C/N3CCCCCC3)C2=O [Pivmecillinam hydrochloride]
> 46 | C[C@H](N)[C@H](O)c1cccc(O)c1.O=C(O)[C@@H](O)[C@@H](O)C(=O)O.O=C(O)[C@@H](O)[C@@H](O)C(=O)O [Metaraminol bitartrate]
> 46 | CCOC(=O)Cn1cccc1-c1nc(-c2ccc(OC)cc2)c(-c2ccc(OC)cc2)s1 [PAMICOGREL]
> 46 | N=C(N)NCc1cccc(I)c1 [m-Iodobenzylguanidine hemisulfate]
> 46 | C1C\N=C(\CC2=CC=CC=C2)N1 [Tolazoline hydrochloride]
> 46 | C1C[C@@H](\C2=N\CCN2)C3=C(C1)C=CC=C3 [Tetrahydrozoline hydrochloride]
> 46 | CC[C@H](C)[C@H]1O[C@]2(CC[C@@H]1C)C[C@@H]1C[C@@H](C/C=C(\C)[C@H](O[C@@H]3C[C@H](OC)[C@H](O[C@@H]4C[C@H](OC)[C@@H](O)[C@H](C)O4)[C@H](C)O3)[C@@H](C)/C=C/C=C3\CO[C@@H]4[C@H](O)C(C)=C[C@@H](C(=O)O1)[C@]34O)O2 [IVERMECTIN]
> 46 | C[C@H]1CC[C@]2(OC1)O[C@@H]1C[C@@H]3[C@H]4CC[C@H]5C[C@@H](O)CC[C@]5(C)[C@@H]4CC(=O)[C@@]3(C)[C@H]1[C@@H]2C [Hecogenin]
> 46 | FC(F)(F)C(Cl)Br (stereo not given) [Halothane]
> 46 | c1ccc2c(CC3=NCCN3)cccc2c1 [NAPHAZOLINE]
> 46 | CC(C)COC(=O)c1ccc(N)cc1 [Isobutamben]
> 46 | NCCCC[C@H](NC(=O)[C@@H]1CCCN1C(=O)[C@@H]1CSSC[C@H](NC(=O)CNC(=O)CNC(=O)CN)C(=O)N[C@@H](Cc2ccc(O)cc2)C(=O)N[C@@H](Cc2ccccc2)C(=O)N[C@@H](CCC(N)=O)C(=O)N[C@@H](CC(N)=O)C(=O)N1)C(=O)NCC(N)=O [TERLIPRESSIN]
> 46 | CC(O)CCCCn1c(=O)c2c(ncn2C)n(C)c1=O (stereo not given) [Lisofylline]

IC50 of cell viability [µM] | Compound
> 46 | COC1=C(OC)C=C(CNCC(O)COC2=CC=C3NC(=O)\C=C/C3=C2)C=C1 (stereo not given) [TOBORINONE]
> 46 | CC[C@H](c1ccccc1)c1noc(CCN(CC)CC)n1 [Proxazole citrate]
> 46 | N=C(N)NC(=O)Cc1c(Cl)cccc1Cl [GUANFACINE]
> 46 | CCCCCCCC/C=C\CCCCCCCC(=O)NCc1ccc(O)c(OC)c1 [Olvanil]
> 46 | COC(=O)Nc1nc2ccc([S+]([O-])c3ccccc3)cc2[nH]1 (stereo not given) [Oxfendazole]
> 46 | CCCN[C@@H](C)C(=O)Nc1ccccc1C [Prilocaine hydrochloride]
> 46 | c1cnc2cc3c(cc2n1)C1CNCC3C1 [Varenicline]
> 46 | CCOC(N)=O [URETHANE]
> 46 | CC(=O)CC(C1=CC=CC=C1)C/2=C(O)/C3=CC=CC=C3OC2=O (stereo not given) [WARFARIN]
> 46 | CN/C(=C\[N+](=O)[O-])NCCSCc1ccc(CN(C)C)o1 [RANITIDINE]
> 46 | CC(C)C[C@@H](NC(=O)[C@@H](COC(C)(C)C)NC(=O)[C@H](Cc1ccc(O)cc1)NC(=O)[C@@H](CO)NC(=O)[C@@H](Cc1c[nH]c2ccccc12)NC(=O)[C@@H](Cc1c[nH]cn1)NC(=O)[C@@H]1CCC(=O)N1)C(=O)N[C@H](CCCNC(=N)N)C(=O)N1CCC[C@H]1C(=O)NNC(N)=O [GOSERELIN ACETATE]
> 46 | OCCOCCN1CCN(C(c2ccccc2)c2ccc(Cl)cc2)CC1 (stereo not given) [Tranquizine]
> 46 | O=C(CCBr)N1CCN(C(=O)CCBr)CC1 [PIPOBROMAN]
> 46 | COc1ccc(CCNC[C@@H](O)c2ccc(O)cc2)cc1OC [R(-)-Denopamine]
> 46 | OCc1cc(C(O)CNCCCCCCOCCCCc2ccccc2)ccc1O (stereo not given) [Salmeterol]
> 46 | CN(CCOc1ccc(CC2SC(=O)NC2=O)cc1)c1ccccn1 (stereo not given) [ROSIGLITAZONE]
